How the values were obtained:
NCI-H2228 = experiment: Antiproliferative activity against human NCI-H2228 cells assessed as reduction in cell viability incubated for 72 hrs by MTT assay; type: functional, cell-based; settings: NCI-H2228, 72 h
KARPAS-299 = experiment: Antiproliferative activity against human KARPAS299 cells assessed as reduction in cell viability incubated for 72 hrs by MTT assay; type: functional, cell-based; settings: KARPAS-299, 72 h
HCC78 = experiment: Antiproliferative activity against human HCC78 cells assessed as reduction in cell viability incubated for 72 hrs by MTT assay; type: functional, cell-based; settings: HCC78, 72 h
A549 [1] = experiment: Antiproliferative activity against human A549 cells harbouring […] mutant assessed as reduction in cell viability incubated for 72 hrs by MTT assay; type: functional, cell-based; settings: A549, 72 h
A549 [2] = experiment: cells; settings: Homo sapiens, A549, 72 h
HT-29 = experiment: cells; settings: Homo sapiens, HT-29, 72 h
Description: Antiproliferative activity against human HT-29 cells assessed as reduction in cell viability incubated for 72 hrs by MTT assay

[3] = target: Hepatocyte growth factor receptor (Homo sapiens, UniProt P08581); experiment: Inhibition of recombinant human N-terminal GST-tagged MET (956 to 1390 residues) cytoplasmic domain expressed in baculovirus expression system using Srctide as substrate incubated for 1 hr by mobility shift assay
Chain of Hepatocyte growth factor receptor (P08581 whole entry, the tested form may be a part): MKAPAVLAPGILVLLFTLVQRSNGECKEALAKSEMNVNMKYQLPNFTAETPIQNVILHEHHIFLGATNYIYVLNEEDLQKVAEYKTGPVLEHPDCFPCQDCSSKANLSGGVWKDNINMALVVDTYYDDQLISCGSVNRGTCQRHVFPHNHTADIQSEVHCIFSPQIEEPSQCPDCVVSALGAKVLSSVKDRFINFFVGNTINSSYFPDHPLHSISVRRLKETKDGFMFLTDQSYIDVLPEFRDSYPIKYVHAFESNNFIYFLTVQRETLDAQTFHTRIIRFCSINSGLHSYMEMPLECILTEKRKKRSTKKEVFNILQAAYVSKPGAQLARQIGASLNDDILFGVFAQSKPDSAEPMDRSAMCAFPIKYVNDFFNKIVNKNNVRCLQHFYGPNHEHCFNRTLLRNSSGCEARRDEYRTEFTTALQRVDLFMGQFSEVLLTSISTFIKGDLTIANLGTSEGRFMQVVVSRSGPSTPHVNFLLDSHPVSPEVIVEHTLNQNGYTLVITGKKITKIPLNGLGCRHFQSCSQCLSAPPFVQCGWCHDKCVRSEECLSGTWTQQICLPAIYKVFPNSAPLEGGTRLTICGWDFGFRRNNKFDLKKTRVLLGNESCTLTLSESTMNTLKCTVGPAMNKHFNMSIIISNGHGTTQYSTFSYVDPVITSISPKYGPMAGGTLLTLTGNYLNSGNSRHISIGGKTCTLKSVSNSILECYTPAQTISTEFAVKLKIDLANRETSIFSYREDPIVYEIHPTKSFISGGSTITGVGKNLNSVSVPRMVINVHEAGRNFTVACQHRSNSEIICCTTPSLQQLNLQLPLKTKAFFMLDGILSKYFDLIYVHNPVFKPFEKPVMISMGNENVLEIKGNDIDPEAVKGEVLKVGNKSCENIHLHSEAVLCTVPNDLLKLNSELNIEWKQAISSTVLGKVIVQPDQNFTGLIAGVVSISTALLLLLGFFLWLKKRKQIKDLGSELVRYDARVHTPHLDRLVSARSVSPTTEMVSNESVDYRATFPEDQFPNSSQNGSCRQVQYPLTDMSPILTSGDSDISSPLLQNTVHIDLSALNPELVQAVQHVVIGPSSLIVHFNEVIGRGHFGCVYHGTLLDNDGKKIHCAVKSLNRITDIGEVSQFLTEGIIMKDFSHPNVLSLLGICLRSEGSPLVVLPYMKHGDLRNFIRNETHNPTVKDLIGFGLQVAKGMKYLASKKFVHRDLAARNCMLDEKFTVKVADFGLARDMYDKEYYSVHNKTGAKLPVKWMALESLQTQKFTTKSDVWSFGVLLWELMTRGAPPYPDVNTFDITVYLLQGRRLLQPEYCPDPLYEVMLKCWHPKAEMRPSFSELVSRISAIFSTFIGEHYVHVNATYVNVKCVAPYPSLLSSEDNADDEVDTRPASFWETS

SMILES | IC50 (NCI-H2228) [µM] | IC50 (KARPAS-299) [µM] | IC50 (HCC78) [µM] | IC50 (A549 [1]) [µM] | IC50 (A549 [2]) [µM] | IC50 (HT-29) [µM] | IC50 [3] [µM]
COc1cc(NC(=O)N2CCN(C)CC2)ccc1Nc1ncc(Cl)c(Nc2ccccc2NC(C)=O)n1 | 0.17 | 0.049 | 0.39 | 0.44 | 4.59 | > 10 | 
COc1cc(NC(=O)N2CCC(C)CC2)ccc1Nc1ncc(Cl)c(Nc2ccccc2NC(C)=O)n1 | 0.61 | 0.17 | 0.53 | 1.27 | > 10 | 3.25 | 
COc1cc(NC(=O)N2CCC2)ccc1Nc1ncc(Cl)c(Nc2ccccc2NC(C)=O)n1 | 0.34 | 0.39 | 0.56 | 1.16 | 2.45 | 6.77 | 
COc1cc(NC(=O)C2CCN(C(=O)OC(C)(C)C)CC2)ccc1Nc1ncc(Cl)c(Nc2ccccc2NC(C)=O)n1 | 1.73 | 0.51 | 0.61 | 1.37 | 5.31 | > 10 | 
COc1cc(NC(=O)N[C@H]2CC[C@H](C)CC2)ccc1Nc1ncc(Cl)c(Nc2ccccc2NC(C)=O)n1 | 0.53 | 0.83 | 0.41 | 2.41 | 4.12 | > 10 | 
COc1cc(NC(=O)NC2CCN(C(=O)OC(C)(C)C)CC2)ccc1Nc1ncc(Cl)c(Nc2ccccc2NC(C)=O)n1 | 0.84 | 1.02 | 0.17 | 1.83 | > 10 | 5.51 | 
COc1cc(NC2=CC(=O)CCC2)ccc1Nc1ncc(Cl)c(Nc2ccccc2NC(C)=O)n1 | 1.64 | 1.03 | 0.23 | 1.11 | 5.19 | > 10 | 
COc1cc(NC(=O)N2CCC(C(=O)O)CC2)ccc1Nc1ncc(Cl)c(Nc2ccccc2NC(C)=O)n1 | 1.85 | 1.08 | 0.39 | 0.97 | > 10 | 3.61 | 
Cc1cc(Nc2ncc(Cl)c(Nc3ccccc3S(=O)(=O)C(C)C)n2)c(OC(C)C)cc1C1CCNCC1 [CERITINIB] | 0.045 | 0.037 | 0.039 | 0.51 | 1.43 | 1.03 | 0.271
COc1cc(NC(=O)N[C@H]2CC[C@H](O)CC2)ccc1Nc1ncc(Cl)c(Nc2ccccc2NC(C)=O)n1 | 0.55 | 0.34 | 0.095 | 1.23 | 2.3 | > 10 | 
COC(=O)C1=C(Nc2ccc(Nc3ncc(Cl)c(Nc4ccccc4NC(C)=O)n3)c(OC)c2)CCC1 | 2.94 | 4.3 | 0.87 | 1.81 | > 10 | > 10 | 
COc1cc(NC(=O)NC2CCCC2)ccc1Nc1ncc(Cl)c(Nc2ccccc2NC(C)=O)n1 | 0.47 | 0.84 | 0.61 | 0.74 | > 10 | 6.57 | 
COc1cc(NC2CCCCC2)ccc1Nc1ncc(Cl)c(Nc2ccccc2NC(C)=O)n1 | 0.57 | 0.87 | 0.39 | 2.17 | > 10 | 4.73 | 
COc1cc(NC(=O)N2CCCCC2)ccc1Nc1ncc(Cl)c(Nc2ccccc2NC(C)=O)n1 | 0.64 | 0.24 | 0.21 | 0.97 | > 10 | > 10 | 
COc1cc(NC(=O)NC2CC2)ccc1Nc1ncc(Cl)c(Nc2ccccc2NC(C)=O)n1 | 0.81 | 0.89 | 0.87 | 0.71 | > 10 | > 10 | 
COc1cc(NC2CCCC2)ccc1Nc1ncc(Cl)c(Nc2ccccc2NC(C)=O)n1 | 0.97 | 1.05 | 0.67 | 1.02 | > 10 | > 10 | 
COc1cc(N2C(=O)CCC2=O)ccc1Nc1ncc(Cl)c(Nc2ccccc2NC(C)=O)n1 | 0.63 | 0.21 | 0.39 | 0.61 | > 10 | > 10 | 

Continued by falling IC50 (NCI-H2228), values first:

IC50 (NCI-H2228) [µM] | IC50 (KARPAS-299) [µM] | IC50 (HCC78) [µM] | IC50 (A549 [1]) [µM] | IC50 (A549 [2]) [µM] | IC50 (HT-29) [µM] | IC50 [3] [µM] | SMILES
2.53 | 5.04 | 0.92 | 3.13 | > 10 | > 10 |  | CCOC(=O)C1=C(Nc2ccc(Nc3ncc(Cl)c(Nc4ccccc4NC(C)=O)n3)c(OC)c2)CCC1
1.21 | 0.45 | 0.87 | 0.94 | 1.72 | > 10 |  | CCOC(=O)C1CCN(C(=O)Nc2ccc(Nc3ncc(Cl)c(Nc4ccccc4NC(C)=O)n3)c(OC)c2)CC1
0.93 | 1.12 | 0.23 | 1.17 | 2.31 | 3.11 |  | COc1cc(NC(=O)N2CCN(C(=O)OC(C)(C)C)CC2)ccc1Nc1ncc(Cl)c(Nc2ccccc2NC(C)=O)n1
0.78 | 0.49 | 0.27 | 1.1 | 3.1 | > 10 |  | COc1cc(NC(=O)NCCCN2CCOCC2)ccc1Nc1ncc(Cl)c(Nc2ccccc2NC(C)=O)n1
0.74 | 0.66 | 0.23 | 0.65 | 2.15 | 5.57 |  | COc1cc(N2CCC2=O)ccc1Nc1ncc(Cl)c(Nc2ccccc2NC(C)=O)n1
0.73 | 0.27 | 0.49 | 1.07 | > 10 | 4.15 |  | COc1cc(NC(=O)N2CC(O)C2)ccc1Nc1ncc(Cl)c(Nc2ccccc2NC(C)=O)n1
0.72 | 0.29 | 0.11 | 1.02 | 2.97 | > 10 |  | COc1cc(NC(=O)NCCCN2CCCC2)ccc1Nc1ncc(Cl)c(Nc2ccccc2NC(C)=O)n1
0.6 | 0.59 | 0.67 | 1.55 | 2.57 | > 10 |  | CCOC(=O)[C@@H]1CCCN(C(=O)Nc2ccc(Nc3ncc(Cl)c(Nc4ccccc4NC(C)=O)n3)c(OC)c2)C1
0.57 | 0.21 | 0.17 | 2.36 | > 10 | > 10 |  | COc1cc(NC(=O)N2CCSCC2)ccc1Nc1ncc(Cl)c(Nc2ccccc2NC(C)=O)n1
0.53 | 0.31 | 0.66 | 1.07 | > 10 | > 10 |  | COc1cc(N2CCCCC2=O)ccc1Nc1ncc(Cl)c(Nc2ccccc2NC(C)=O)n1
0.46 | 0.72 | 0.51 | 1.54 | > 10 | > 10 |  | COc1cc(NC(=O)NC2CCCCC2)ccc1Nc1ncc(Cl)c(Nc2ccccc2NC(C)=O)n1
0.23 | 0.34 | 0.31 | 1.49 | > 10 | 2.25 |  | COc1cc(NC(=O)NN2CCOCC2)ccc1Nc1ncc(Cl)c(Nc2ccccc2NC(C)=O)n1
